Laboratory results reported in ChEMBL document CHEMBL2177076, “Rational design of potent non-nucleoside inhibitors of HIV-1 reverse transcriptase” (J Med Chem, 2012).
Active and inactive are the calls of the source. The calls are words filed in the database; no cut-off is given here.

What was measured:
[1] = system: Human immunodeficiency virus 1; assay: Antiviral activity against HIV1 expressing wild type reverse transcriptase infected in human MT4 cells assessed as inhibition of viral replication after 72 hrs by HeLa-CD4-LTR-beta-gal assay; type: functional, organism-based; settings: Human immunodeficiency virus 1, MT4, 72 h
[2] = system: Human immunodeficiency virus 1; assay: Antiviral activity against NNRTI-resistant HIV1 harboring reverse transcriptase Y188L mutant infected in human MT4 cells assessed as inhibition of viral replication after 72 hrs by HeLa-CD4-LTR-beta-gal assay; type: functional, organism-based; settings: Human immunodeficiency virus 1, MT4, 72 h
[3] = system: Human immunodeficiency virus 1; assay: Antiviral activity against NNRTI-resistant HIV1 harboring reverse transcriptase K103N mutant infected in human MT4 cells assessed as inhibition of viral replication after 72 hrs by HeLa-CD4-LTR-beta-gal assay; type: functional, organism-based; settings: Human immunodeficiency virus 1, MT4, 72 h
[4] = system: Human immunodeficiency virus 1; assay: Antiviral activity against NNRTI-resistant HIV1 harboring reverse transcriptase Y181C mutant infected in human MT4 cells assessed as inhibition of viral replication after 72 hrs by HeLa-CD4-LTR-beta-gal assay; type: functional, organism-based; settings: Human immunodeficiency virus 1, MT4, 72 h
[5] = system: Human immunodeficiency virus 1; assay: Selectivity ratio of EC50 for NNRTI-resistant HIV1 harboring reverse transcriptase Y181V mutant to EC50 for HIV1 expressing wild type reverse transcriptase; type: functional
[6] = system: Human immunodeficiency virus 1; assay: Antiviral activity against NNRTI-resistant HIV1 harboring reverse transcriptase Y181C/F227C double mutant infected in human MT4 cells assessed as inhibition of viral replication after 72 hrs by HeLa-CD4-LTR-beta-gal assay; type: functional, organism-based
[7] = system: Human immunodeficiency virus 1; assay: Antiviral activity against NNRTI-resistant HIV1 harboring reverse transcriptase Y181I/V179F double mutant infected in human MT4 cells assessed as inhibition of viral replication after 72 hrs by HeLa-CD4-LTR-beta-gal assay; type: functional, organism-based
[8] = system: Human immunodeficiency virus 1; assay: Antiviral activity against NNRTI-resistant HIV1 harboring reverse transcriptase Y181C/V179F double mutant infected in human MT4 cells assessed as inhibition of viral replication after 72 hrs by HeLa-CD4-LTR-beta-gal assay; type: functional, organism-based
[9] = system: Human immunodeficiency virus 1; assay: Ratio of EC50 for HIV1 expressing wild type reverse transcriptase in presence of human serum albumin and human alpha-1 acid glycoprotein to EC50 for HIV1 expressing wild type reverse transcriptase; type: functional
[10] = system: Human immunodeficiency virus 1; assay: Antiviral activity against NNRTI-resistant HIV1 harboring reverse transcriptase Y181C/K103N double mutant infected in human MT4 cells assessed as inhibition of viral replication after 72 hrs by HeLa-CD4-LTR-beta-gal assay; type: functional, organism-based
[11] = Dissociation constant, pKa of the compound; type: physicochemical
[12] = Volume of distribution at steady state in cynomolgus monkey at 1 mg/kg, iv; type: ADME, organism-based, Macaca fascicularis; set-up: dose 1 mg/kg, route intravenous; settings: in vivo, read-out: Vdss
[13] = Volume of distribution at steady state in dog at 1 mg/kg, iv; type: ADME, organism-based, Canis lupus familiaris; set-up: dose 1 mg/kg, route intravenous; settings: in vivo, read-out: Vdss
Cynomolgus monkey = assay: AUC (0 to infinity) in cynomolgus monkey at 5 mg/kg, po; type: ADME, organism-based, Macaca fascicularis, Plasma; set-up: time infinity, dose 5 mg/kg, route oral; settings: in vivo
[14] = Oral bioavailability in cynomolgus monkey at 5 mg/kg; type: ADME, organism-based, Macaca fascicularis; settings: in vivo
[15] = Half life in cynomolgus monkey at 1 mg/kg, iv; type: ADME, organism-based, Macaca fascicularis; set-up: dose 1 mg/kg, route intravenous; settings: in vivo
Mus musculus = assay: AUC (0 to infinity) in mouse at 5 mg/kg, po; type: ADME, organism-based, Plasma; set-up: time infinity, dose 5 mg/kg, route oral; settings: in vivo
[16] = Clearance in Sprague-Dawley rat at 1 mg/kg, iv; type: ADME, organism-based; set-up: dose 1 mg/kg, route intravenous; settings: in vivo
[17] = Half life in dog at 1 mg/kg, iv; type: ADME, organism-based, Canis lupus familiaris; set-up: dose 1 mg/kg, route intravenous; settings: in vivo
[18] = Volume of distribution at steady state in mouse at 1 mg/kg, iv; type: ADME, organism-based; set-up: dose 1 mg/kg, route intravenous; settings: in vivo, read-out: Vdss
[19] = Oral bioavailability in mouse at 5 mg/kg; type: ADME, organism-based; settings: in vivo
Canis familiaris = assay: AUC (0 to infinity) in dog at 5 mg/kg, po; type: ADME, organism-based, Canis lupus familiaris, Plasma; set-up: time infinity, dose 5 mg/kg, route oral; settings: in vivo
[20] = Clearance in mouse at 1 mg/kg, iv; type: ADME, organism-based; set-up: dose 1 mg/kg, route intravenous; settings: in vivo
[21] = Clearance in dog at 1 mg/kg, iv; type: ADME, organism-based, Canis lupus familiaris; set-up: dose 1 mg/kg, route intravenous; settings: in vivo
[22] = system: Human immunodeficiency virus 1; assay: Selectivity ratio of EC50 for NNRTI-resistant HIV1 harboring reverse transcriptase Y188L mutant to EC50 for HIV1 expressing wild type reverse transcriptase; type: functional
[23] = system: Human immunodeficiency virus 1; assay: Antiviral activity against NNRTI-resistant HIV1 harboring reverse transcriptase Y181V mutant infected in human MT4 cells assessed as inhibition of viral replication after 72 hrs by HeLa-CD4-LTR-beta-gal assay; type: functional, organism-based
[24] = Half life in Sprague-Dawley rat at 1 mg/kg, iv; type: ADME, organism-based; set-up: dose 1 mg/kg, route intravenous; settings: in vivo
[25] = Oral bioavailability in dog at 5 mg/kg; type: ADME, organism-based, Canis lupus familiaris; settings: in vivo
[26] = Volume of distribution at steady state in Sprague-Dawley rat at 1 mg/kg, iv; type: ADME, organism-based; set-up: dose 1 mg/kg, route intravenous; settings: in vivo, read-out: Vdss
[27] = Half life in mouse at 1 mg/kg, iv; type: ADME, organism-based; set-up: dose 1 mg/kg, route intravenous; settings: in vivo
[28] = system: Human immunodeficiency virus 1; assay: Selectivity ratio of EC50 for NNRTI-resistant HIV1 harboring reverse transcriptase Y181I mutant to EC50 for HIV1 expressing wild type reverse transcriptase; type: functional
Rattus norvegicus = assay: AUC (0 to infinity) in Sprague-Dawley rat at 5 mg/kg, po; type: ADME, organism-based, Plasma; set-up: time infinity, dose 5 mg/kg, route oral; settings: in vivo
[29] = Oral bioavailability in Sprague-Dawley rat at 5 mg/kg; type: ADME, organism-based; settings: in vivo
[30] = Clearance in cynomolgus monkey at 1 mg/kg, iv; type: ADME, organism-based, Macaca fascicularis; set-up: dose 1 mg/kg, route intravenous; settings: in vivo
[31] = system: Human immunodeficiency virus 1; assay: Antiviral activity against NNRTI-resistant HIV1 harboring reverse transcriptase Y181I mutant infected in human MT4 cells assessed as inhibition of viral replication after 72 hrs by HeLa-CD4-LTR-beta-gal assay; type: functional, organism-based

CCCc1nc(Cl)c(C(=O)NCc2ccc(Cl)c(Oc3cc(Cl)cc(C#N)c3)c2F)[nH]1
EC50 [1]: 0.3 nM
EC50 [2]: 240 nM
EC50 [3]: 0.4 nM
EC50 [4]: 1.3 nM

Cc1cc(S(N)(=O)=O)ccc1NC(=O)COc1ccc(Cl)cc1C(=O)c1cc(Cl)cc(C#N)c1
EC50 [1]: 0.3 nM
EC50 [2]: 18 nM
EC50 [3]: 0.5 nM
EC50 [4]: 0.5 nM

Cc1cc(C#N)cc(C)c1Oc1nc(Nc2ccc(C#N)cc2)nc(N)c1Br [ETRAVIRINE]
EC50 [1]: 0.6 nM
Ratio EC50 [5]: 83
inhibition [6]: inactive
EC50 [2]: 0.9 nM
inhibition [7]: inactive
EC50 [3]: 0.4 nM
EC50 [4]: 2.4 nM
inhibition [8]: inactive
Ratio EC50 [9]: 13
inhibition [10]: inactive

Cc1cc(/C=C/C#N)cc(C)c1Nc1ccnc(Nc2ccc(C#N)cc2)n1 [RILPIVIRINE]
inhibition [6]: inactive
EC50 [2]: 3.7 nM
inhibition [7]: inactive
inhibition [8]: inactive
inhibition [10]: inactive

N#Cc1cc(Cl)cc(Oc2c(Cl)ccc(CNC(=O)c3cc4ccccc4o3)c2F)c1
EC50 [1]: 52 nM
EC50 [2]: > 1000 nM
EC50 [3]: 380 nM
EC50 [4]: 340 nM

N#Cc1cc(Cl)cc(Oc2c(Cl)ccc(CNC(=O)c3cnc[nH]3)c2F)c1
EC50 [1]: 9.7 nM
EC50 [2]: > 1000 nM
EC50 [3]: 48 nM
EC50 [4]: 260 nM

N#Cc1cc(Cl)cc(Oc2c(Cl)ccc(CNC(=O)c3[nH]cnc3Cl)c2F)c1
EC50 [1]: 0.1 nM
EC50 [2]: 5.6 nM
EC50 [4]: 0.2 nM
pKa [11]: 8.9

N#Cc1cc(Cl)cc(Oc2c(Cl)ccc(CNC(=O)c3[nH]c(CO)nc3Cl)c2F)c1
EC50 [1]: 0.3 nM
EC50 [2]: 24 nM
EC50 [4]: 1.2 nM

N#Cc1cc(Cl)cc(Oc2c(Cl)ccc(CNC(=O)c3[nH]cnc3Br)c2F)c1
EC50 [1]: 0.1 nM
EC50 [2]: 7.1 nM
EC50 [4]: 0.2 nM

N#Cc1cc(Cl)cc(Oc2c(Cl)ccc(CNC(=O)c3cc4ccccc4[nH]3)c2F)c1
EC50 [1]: 8.9 nM
EC50 [2]: > 1000 nM
EC50 [3]: 26 nM
EC50 [4]: 58 nM

N#Cc1cc(Cl)cc(Oc2c(Cl)ccc(CNC(=O)c3[nH]c(O)nc3Cl)c2F)c1
EC50 [1]: 5.3 nM
EC50 [2]: > 1000 nM
EC50 [3]: 14 nM
EC50 [4]: 57 nM

N#Cc1cc(Cl)cc(Oc2c(Cl)ccc(CNC(=O)c3nc4ccccc4[nH]3)c2F)c1
EC50 [1]: 5.1 nM
EC50 [2]: > 1000 nM
EC50 [3]: 18 nM
EC50 [4]: 27 nM

N#Cc1cc(Cl)cc(Oc2c(Cl)ccc(CNC(=O)c3[nH]c(N)nc3Cl)c2F)c1
EC50 [1]: 0.1 nM
EC50 [2]: 0.9 nM

N#Cc1cc(Cl)cc(Oc2c(Br)ccc(CNC(=O)c3[nH]c(N)nc3Cl)c2F)c1
Vd [12]: 1.8 L/kg
EC50 [1]: 0.1 nM
Vd [13]: 0.9 L/kg
Ratio EC50 [5]: <3
AUC (Cynomolgus monkey): 6460 ng·h/mL
EC50 ([6]; Human immunodeficiency virus 1, MT4, 72 h): 3.2 nM
bioavailability [14]: 34%
half-life [15]: 6.1 h
AUC (Mus musculus): 9600 ng·h/mL
clearance [16]: 28.6 mL/min/kg
half-life [17]: 4.3 h
Vd [18]: 2.1 L/kg
bioavailability [19]: 94%
EC50 [2]: 0.5 nM
AUC (Canis familiaris): 14300 ng·h/mL
clearance [20]: 8.2 mL/min/kg
clearance [21]: 2.8 mL/min/kg
Ratio EC50 [22]: 5
inhibition [23]: Active
half-life [24]: 2.2 h
bioavailability [25]: 47%
inhibition [7]: Active
Vd [26]: 3.6 L/kg
half-life [27]: 3.1 h
Ratio EC50 [28]: <3
AUC (Rattus norvegicus): 2510 ng·h/mL
inhibition [8]: Active
bioavailability [29]: 84%
Ratio EC50 [9]: 71
clearance [30]: 4.7 mL/min/kg
inhibition [10]: Active
inhibition [31]: Active

O=C1Nc2ccc(Cl)cc2[C@@](C#CC2CC2)(C(F)(F)F)O1 [EFAVIRENZ]
EC50 [2]: 157 nM
EC50 [3]: 20 nM
EC50 [4]: 1 nM

N#Cc1cc(Cl)cc(Oc2c(Cl)ccc(CNC(=O)c3[nH]cnc3C(F)(F)F)c2F)c1
EC50 [1]: 0.1 nM
EC50 [2]: 320 nM
EC50 [3]: 0.7 nM
EC50 [4]: 1.4 nM

N#Cc1cc(Cl)cc(Oc2c(Cl)ccc(CNC(=O)c3ccc(S(N)(=O)=O)cc3Cl)c2F)c1
EC50 [1]: 13 nM
EC50 [2]: > 1000 nM
EC50 [3]: 60 nM
EC50 [4]: 180 nM

Cc1nc[nH]c1C(=O)NCc1ccc(Cl)c(Oc2cc(Cl)cc(C#N)c2)c1F
EC50 [1]: 2.4 nM
EC50 [2]: > 1000 nM
EC50 [3]: 7.2 nM
EC50 [4]: 15 nM
pKa [11]: > 12

Cn1cncc1C(=O)NCc1ccc(Cl)c(Oc2cc(Cl)cc(C#N)c2)c1F
EC50 [1]: 120 nM
EC50 [2]: > 1000 nM
EC50 [3]: 460 nM
EC50 [4]: > 1000 nM

Cc1nc(Cl)c(C(=O)NCc2ccc(Cl)c(Oc3cc(Cl)cc(C#N)c3)c2F)[nH]1
EC50 [1]: 0.2 nM
EC50 [2]: 11 nM
EC50 [4]: 0.3 nM

CCc1nc(Cl)c(C(=O)NCc2ccc(Cl)c(Oc3cc(Cl)cc(C#N)c3)c2F)[nH]1
EC50 [1]: 0.3 nM
EC50 [2]: 76 nM
EC50 [4]: 0.8 nM
